# Patent US20220395458A1, “PREVENTION OF VISIBLE PARTICLE FORMATION IN AQUEOUS PROTEIN SOLUTIONS” (Hoffmann-La Roche Inc., priority 2019, published 2022)
# What was measured:
# [1] = Visible particles by Seidenader after spiking FFA to inorganic salt solutions; assay type: physicochemical; conditions: for Visible particles in Seidenader: dependent on salt concentration over time, much lesser extent than CaCl2 and NaAlO2; for Visible particles Seidenader d0 / Visible particles Seidenader d2 / Visible particles Seidenader d7 / Visible particles Seidenader d1: FFA below solubility limit; for Visible particles Seidenader d0: d0 directly after spiking
# Protocol: Del.) at 100 rpm at 25° C., for 1 hour. […] FFA concentrations were verified for selected by LC-MS samples acc. Honemann et al.^7
# […] NaCl, NaAlO2. NaBO2. B2O3, and CaCl2 (Sigma-Aldrich/Merck. Darmstadt. Del.) were selected as their dissolution products (ions) represent typical glass leachables from Type I borosilicate glass. The pH of the NaAlO2 and NaBO2 stock solutions was adjusted to pH 6 using HCl and subsequently filtered using 0.22 μm PVDF Sterivex filters (Merck Millipore. Darmstadt. Del.) and true elemental concentrations were determined by inductively-coupled plasma mass spectrometry (ICP-MS). […] Spiking experiments with FFA were performed in duplicates.
# (§1) Samples were analyzed by visual inspection on a Seidenader V 90-T instrument (Seidenader Maschinenbau GmbH. Markt Schwaben. Del.) as previously described by Ditter et al.^9 and using a black/white panel according Ph. Eur. 2.9.20.^10 and classified as Many particles (>7). Few particles (4-7), or Practically free of particles (0-4) in E/P box, and Many particles (>10). Few particles (6-10). Essentially free of particles (1-5), or Free of particles (0) by Seidenader.
# (§2) pH of all solutions was verified. Samples were visually inspected immediately after spiking and regularly for up to 7 days. Further characterization by HIAC, turbidity, FTIR, and SEM-EDX was performed on day 1 only. All samples were analyzed when equilibrated to room temperature (4 h).
# Different inorganic salt solutions, i.e. CaCl2. NaAlO2. NaBO2. B2O3, and NaCl, were prepared simulating artificial glass leachables. Myristic and lauric acid, as main degradation product from hydrolytic PS20 degradation, were added at concentrations below their solubility limit and samples were analyzed for visible particles. SVP, and turbidity. Samples were compared against relevant controls and the pH verified at pH 6.
# [2] = Visible particles (Seidenader) after spiking FFA to glass leachable solutions; assay type: physicochemical; design: key to Visible particles: relative ranking to each other from less to most particle fromation (+, ++, +++); relative ranking to each other from less to most particle fromation (+, ++, +++); relative ranking to each other from less to most particle fromation (+, ++, +++); conditions: for Visible particles: FFA below solubility limit, up to 7 days, triplicates; for Visible particles d0: d0 directly after spiking
# Protocol: Aqueous stock solutions were prepared in 0.02% PS20 (Croda. Edison, N.J., USA) at defined concentrations of (1) 5 mg/mL and (2) 12.5 mg/mL (lauric acid. Sigma-Aldrich/Merck. Darmstadt. Del.) or (1) 1.5 mg/mL and (2) 5 mg/mL (myristic acid, Sigma-Aldrich/Merck. Darmstadt. Del.) as previously described by Doshi et al.^6 The procedure was adapted that the FFA/PS20 stock solution was sterile filtered using 0.22 μm PVDF Steriflip filters (Merck Millipore. Darmstadt. Del.) before 1:10 dilution and subsequently homogenized without a magnetic stirrer using a Heidolph Rotamax 120 orbital shaker (Schwabach. Del.) at 100 rpm at 25° C., for 1 hour. After 1:500 dilution, the solution was homogenized for 1 hour at 25° C., before homogenization at 2-8° C., overnight, 12-40 μL of stock solution were used for spiking experiments yielding final FFA concentrations of (1) 10 μg/mL and (2) 25 μg/mL (lauric acid) or (1) 3 μg/mL and (2) 10 μg/mL (myristic acid). Dilutions with stock solutions 1 yield FFA concentration below their solubility limit, whereas stock solutions 2 act as positive control confirmed by the formation of visible particles. FFA concentrations were verified for selected by LC-MS samples acc. Honemann et al.^7
# Representative mixtures of glass leachables were obtained from three different types of glass vials, e.g. Exp 33 and Exp51 (Schott A G, Müllheim, D E, and Schott North America Inc., N.Y. USA) in the 6 mL format, by three autoclavation cycles (121° C., 20 min) representing accelerate aging conditions. Vials were filled with 6 mL of either water for injection (WFI), 20 mM glycine solution pH 10 or a typical placebo solution used for protein formulations consisting of 20 mM Histidine/Histdine-HCl buffer pH 6.0, 10 mM Methionine, 240 mM sucrose (Ferro Pfanstiehl. Waukegan. Ill. USA), and 0.02% PS20. The pH of the glycine solutions was adapted after autoclavation with HCl to pH 6.0 and filtered through a 0.22 μm PVDF Sterivex filters (Merck Millipore. Darmstadt. Del.) Leachable concentrations were verified ICP-MS (Table 1) as described by Ditter et al.^8 Spiking experiments with FFA were performed in triplicates,
# as §1, §2
# Glass leachables were generated from different types of glass vials, e.g. Exp33 and Exp51 vials, with different matrix solutions including WFI, a glycine solution adjusted to pH 6, and a placebo solution representative for a mAb formulation. Defined amounts of myristic and lauric acid below their solubility limit were added to the solutions/mixtures of glass leachables and analyzed. Visible particles in Seidenader are summarized in Table 3 and were detected for all samples in contrast to various controls. Particle formation was dependent on the glass leachable solution and dependent on incubation time. […] An example for the dependency of particle formation on incubation time is provided in Table 3 for myristic acid in glass leachable solution from Exp51 vials/glycine solution. The example highlights the kinetics of particle formation with no particles directly after spiking and more than 10 particles at incubation day 5 and 7. For selected samples, particles were further characterized and identified by FTIR confirming the presence of free fatty acids. […]
# [3] = in water at room temperature; cited from earlier work
# [4] = CaCl2 250 μg/mL (Ca2+ 90 μg/mL)
# [5] = CaCl2 500 μg/mL (Ca2+ 180 μg/mL)
# [6] = CaCl2 1000 μg/mL (Ca2+ 360 μg/mL)
# [7] = NaAlO2 nominal 250 μg/mL (0.012 μg/mL ion)
# [8] = NaAlO2 nominal 500 μg/mL (0.024 μg/mL ion)
# [9] = NaAlO2 nominal 1000 μg/mL (0.048 μg/mL ion)
# [10] = glass leachable solution Exp33 vials, 3xTS Placebo
# [11] = glass leachable solution Exp33 vials, 3xTS WFI
# [12] = glass leachable solution Exp51 vials, 3xTS Glycine pH 6
# [13] = glass leachable solution Exp51 vials, 3xTS Placebo
# [14] = glass leachable solution Exp51 vials, 3xTS WFI
# [15] = Exp51 vials, 3xTS Glycine pH 6, samples 1-3
# [16] = Exp51 vials, 3xTS Glycine pH 6, samples 1-3, listed as myristic acid
smiles,measurement,setting,value
"CCCCCCCCCCCC(=O)O [Lauric acid, lauric acid]",Visible particles in Seidenader,[1]; B2O3 solution,visible particles were obtained
same,Visible particles Seidenader d0,[1]; [4],"/ (Free of particles (0, /) by Seidenader)"
same,Visible particles Seidenader d2,[1]; [4],"xxx (Many particles (>10, xxx))"
same,Visible particles Seidenader d7,[1]; [4],"xxx (Many particles (>10, xxx))"
same,Visible particles Seidenader d0,[1]; [5],"/ (Free of particles (0, /) by Seidenader)"
same,Visible particles Seidenader d2,[1]; [5],"xxx (Many particles (>10, xxx))"
same,Visible particles Seidenader d7,[1]; [5],"xxx (Many particles (>10, xxx))"
same,Visible particles Seidenader d2,[1]; [6],"xxx (Many particles (>10, xxx))"
same,Visible particles Seidenader d0,[1]; [7],"/ (Free of particles (0, /) by Seidenader)"
same,Visible particles Seidenader d1,[1]; [7],"x (Essentially free of particles (1-5, x))"
same,Visible particles Seidenader d2,[1]; [7],"x (Essentially free of particles (1-5, x))"
same,Visible particles Seidenader d0,[1]; [8],"x (Essentially free of particles (1-5, x))"
same,Visible particles Seidenader d1,[1]; [8],"x (Essentially free of particles (1-5, x))"
same,Visible particles Seidenader d1,[1]; [9],"x (Essentially free of particles (1-5, x))"
same,Visible particles Seidenader d7,[1]; [9],"xxx (Many particles (>10, xxx))"
same,Visible particles in Seidenader,[1]; NaBO2 solution,visible particles were obtained
same,Visible particles,[2]; [10],+++
same,Visible particles,[2]; [11],+
same,Visible particles,[2]; [12],++
same,Visible particles,[2]; [13],+++
same,Visible particles,[2]; [14],++
same,solubility level,[3],15 µg/mL
"CCCCCCCCCCCCCC(=O)O [Myristic acid, myristic acid]",Visible particles in Seidenader,[1]; B2O3 solution,visible particles were obtained
same,Visible particles Seidenader d0,[1]; [4],"xxx (Many particles (>10, xxx))"
same,Visible particles Seidenader d1,[1]; [4],"xxx (Many particles (>10, xxx))"
same,Visible particles Seidenader d2,[1]; [4],"xxx (Many particles (>10, xxx))"
same,Visible particles Seidenader d7,[1]; [4],"xxx (Many particles (>10, xxx))"
same,Visible particles Seidenader d0,[1]; [5],"xxx (Many particles (>10, xxx))"
same,Visible particles Seidenader d1,[1]; [5],"xxx (Many particles (>10, xxx))"
same,Visible particles Seidenader d2,[1]; [5],"xxx (Many particles (>10, xxx))"
same,Visible particles Seidenader d7,[1]; [5],"xxx (Many particles (>10, xxx))"
same,Visible particles Seidenader d0,[1]; [6],"xxx (Many particles (>10, xxx))"
same,Visible particles Seidenader d1,[1]; [6],"xxx (Many particles (>10, xxx))"
same,Visible particles Seidenader d2,[1]; [6],"xxx (Many particles (>10, xxx))"
same,Visible particles Seidenader d7,[1]; [6],"xxx (Many particles (>10, xxx))"
same,Visible particles Seidenader d1,[1]; [7],"x (Essentially free of particles (1-5, x))"
same,Visible particles Seidenader d2,[1]; [7],"x (Essentially free of particles (1-5, x))"
same,Visible particles Seidenader d7,[1]; [7],"xxx (Many particles (>10, xxx))"
same,Visible particles Seidenader d2,[1]; [8],"x (Essentially free of particles (1-5, x))"
same,Visible particles Seidenader d7,[1]; [8],"xxx (Many particles (>10, xxx))"
same,Visible particles Seidenader d0,[1]; [9],"x (Essentially free of particles (1-5, x))"
same,Visible particles Seidenader d7,[1]; [9],"xxx (Many particles (>10, xxx))"
same,Visible particles in Seidenader,[1]; NaBO2 solution,visible particles were obtained
same,Visible particles d0,[2]; [15],1-5 particles
same,Visible particles d0,[2]; [16],no particles
same,Visible particles d1,"[2]; Exp51 vials, 3xTS Glycine pH 6, d1, samples 1-3",1-5 particles
same,Visible particles d5/7,[2]; [15],>10 particles
same,Visible particles d5/7,[2]; [16],more than 10 particles
same,Visible particles,"[2]; glass leachable solution Exp33 vials, 3xTS Glycine pH 6",+
same,Visible particles,[2]; [10],+
same,Visible particles,[2]; [11],+
same,Visible particles,[2]; [12],+++
same,Visible particles,[2]; [13],+
same,Visible particles,[2]; [14],+
same,solubility level,[3],7 µg/mL
